{"source": "ChEMBL document CHEMBL3272016", "about": "“Potential inhibitors of collagen biosynthesis. 5,5-Difluoro-DL-lysine and 5,5-dimethyl-DL-lysine and their activation by lysyl-tRNA ligase” (J Med Chem, 1977)", "key": {"P388 [1]": {"tested_on": "P388", "experiment": "Cytotoxicity against mouse P388 cells assessed as growth inhibition at 0.5 mM after 72 hrs by hemocytometry", "assay_type": "functional", "settings": "P388, 72 h, read-out: GI"}, "[2]": {"experiment": "Dissociation constant, pKa of the compound", "assay_type": "physicochemical"}, "Mus musculus [3]": {"species": "Mus musculus", "experiment": "Inhibition of peptidyl lysine hydroxylase in mouse L929 fibroblasts assessed as release of [3H] as [3H]OH from [4,5-3H]lysylprotocollagen measured per mg of protein at 5 mM (reference value: 1228 cpm)"}, "Mus musculus [4]": {"species": "Mus musculus", "experiment": "Inhibition of peptidyl lysine hydroxylase in mouse L929 fibroblasts assessed as release of [3H] as [3H]OH from [4,5-3H]lysylprotocollagen measured per mg of protein at 0.20 mM (reference value: 1228 cpm)"}, "Mus musculus [5]": {"species": "Mus musculus", "experiment": "Inhibition of peptidyl lysine hydroxylase in mouse L929 fibroblasts assessed as release of [3H] as [3H]OH from [4,5-3H]lysylprotocollagen measured per mg of protein at 0.01 mM (reference value: 1228 cpm)"}, "Mus musculus [6]": {"species": "Mus musculus", "experiment": "Inhibition of peptidyl lysine hydroxylase in mouse L929 fibroblasts assessed as release of [3H] as [3H]OH from [4,5-3H]lysylprotocollagen measured per mg of protein at 0.05 mM (reference value: 1228 cpm)"}, "Mus musculus [7]": {"species": "Mus musculus", "experiment": "Inhibition of peptidyl lysine hydroxylase in mouse L929 fibroblasts assessed as release of [3H] as [3H]OH from [4,5-3H]lysylprotocollagen measured per mg of protein at 1 mM (reference value: 1228 cpm)"}, "L929": {"tested_on": "L929", "experiment": "Inhibition of collagen biosynthesis in mouse L929 fibroblasts assessed as [3H]lysine/[14C]proline incorporation into protein at 5 mM", "assay_type": "functional, cell-based"}, "P388 [8]": {"tested_on": "P388", "experiment": "Cytotoxicity against mouse P388 cells assessed as growth inhibition at 0.55 mM after 72 hrs by hemocytometry", "assay_type": "functional, cell-based"}, "Mus musculus [9]": {"species": "Mus musculus", "experiment": "Inhibition of peptidyl lysine hydroxylase in mouse L929 fibroblasts assessed as release of [3H] as [3H]OH from [4,5-3H]lysylprotocollagen measured per mg of protein at 2 mM (reference value: 1228 cpm)"}, "Mus musculus [10]": {"species": "Mus musculus", "experiment": "Inhibition of peptidyl lysine hydroxylase in mouse L929 fibroblasts assessed as release of [3H] as [3H]OH from [4,5-3H]lysylprotocollagen measured per mg of protein at 0.10 mM (reference value: 1228 cpm)"}, "Mus musculus [11]": {"species": "Mus musculus", "experiment": "Inhibition of peptidyl lysine hydroxylase in mouse L929 fibroblasts"}, "[12]": {"experiment": "Competitive inhibition of Escherichia coli B lysyl-tRNA ligase using lysine as substrate after 15 mins by double reciprocal plot analysis", "settings": "read-out: Ki(app)"}, "P388 [13]": {"tested_on": "P388", "experiment": "Cytotoxicity against mouse P388 cells assessed as growth inhibition at 0.15 mM after 72 hrs by hemocytometry", "assay_type": "functional", "settings": "P388, 72 h, read-out: GI"}}, "note": "Active and inactive are the calls of the source. No cut-off for these calls is given here."}
{"smiles": "NCCSC[C@H](N)C(=O)O", "values": [{"measurement": "inhibition of growth at 500 µM", "setting": "P388 [1]", "value": 93, "unit": "%"}, {"measurement": "Km", "setting": "Escherichia coli B", "value": 1.4, "unit": "µM"}, {"measurement": "pKa", "setting": "[2]", "value": 9.52}]}
{"smiles": "NCC(F)(F)CCC(N)C(=O)O", "note": "(racemic)", "values": [{"measurement": "Activity", "setting": "Mus musculus [3]", "value": 920, "unit": "cpm"}, {"measurement": "Activity", "setting": "Mus musculus [4]", "value": 1270, "unit": "cpm"}, {"measurement": "Activity", "setting": "Mus musculus [5]", "value": 1220, "unit": "cpm"}, {"measurement": "Km", "setting": "Escherichia coli B", "value": 1310, "unit": "µM"}, {"measurement": "Activity", "setting": "Mus musculus [6]", "value": 1270, "unit": "cpm"}, {"measurement": "Activity", "setting": "Mus musculus [7]", "value": 1070, "unit": "cpm"}, {"measurement": "Activity", "setting": "L929", "value": "inactive"}, {"measurement": "growth inhibition (GI)", "setting": "P388 [8]", "value": "inactive"}, {"measurement": "pKa", "setting": "[2]", "value": 6.88}, {"measurement": "Activity", "setting": "Mus musculus [9]", "value": 1080, "unit": "cpm"}, {"measurement": "Activity", "setting": "Mus musculus [10]", "value": 1230, "unit": "cpm"}, {"measurement": "inhibition", "setting": "Mus musculus [11]", "value": "inactive"}]}
{"smiles": "CC(C)(CN)CCC(N)C(=O)O", "note": "(racemic)", "values": [{"measurement": "Ki", "setting": "[12]", "value": 16.2, "unit": "mM"}, {"measurement": "growth inhibition (GI)", "setting": "P388 [8]", "value": "inactive"}, {"measurement": "pKa", "setting": "[2]", "value": 10.2}]}
{"smiles": "NC(=O)NO", "note": "[HYDROXYUREA]", "values": [{"measurement": "inhibition of growth at 150 µM", "setting": "P388 [13]", "value": 87, "unit": "%"}]}
{"smiles": "NCCCC[C@H](N)C(=O)O", "note": "[LYSINE]", "values": [{"measurement": "Km", "setting": "Escherichia coli B", "value": 0.5, "unit": "µM"}, {"measurement": "pKa", "setting": "[2]", "value": 10.6}]}
